We go through two compounds from patent US20080312211A1, “Antibacterial Pyrrolopyridines, Pyrrolopyrimidines and Pyrroloazepines-154” (ASTRAZENECA AB, priority 2005, published 2008).

Series [1] relates to Streptococcus pneumoniae. Briefly: Bacterial susceptibility testing in liquid media (MIC). Type of series: cell-based. On the set-up: unit not given here. Particulars: lowest concentration reducing growth by 80% or more; 37 degrees C., 24 hrs. The procedure:
Compounds were tested for antimicrobial activity by susceptibility testing in liquid media. Compounds were dissolved in dimethylsulfoxide and tested in 10 doubling dilutions in the susceptibility assays. The organisms used in the assay were grown overnight on suitable agar media and then suspended in a liquid medium appropriate for the growth of the organism. The suspension was a 0.5 McFarland and a further 1 in 10 dilution was made into the same liquid medium to prepare the final organism suspension in 100 μL. Plates were incubated under appropriate conditions at 37 degrees C. for 24 hrs prior to reading. The Minimum Inhibitory Concentration was determined as the lowest drug concentration able to reduce growth by 80% or more.

The term melting point denotes the temperature of the solid-liquid transition. Take `COC(=O)c1cnc(N2CCC(n3c(=O)[nH]c4c(C#N)c(C)[nH]c4c3=O)CC2)s1` [Example 1, Methyl 2-[4-(7-cyano-6-methyl-2,4-dioxo-1,2,4,5-tetrahydro-3H-pyrrolo[3,2-d]pyrimidin-3-yl)piperidin-1-yl]-1,3-thiazole-5-carboxylate]: the melting point was > 345 °C (dec.).

Compound `COC1CN(c2ncc(C(=O)O)s2)CCC1n1ccc2c(Cl)c(C)[nH]c2c1=O` (stereo not drawn) [Example 22, 2-[3,4-cis-4-(3-Chloro-2-methyl-7-oxo-1,7-dihydro-6H-pyrrolo[2,3-c]pyridin-6-yl)-3-methoxypiperidin-1-yl]-1,3-thiazole-5-carboxylic acid] had an MIC in series [1] of 50.
